Data: publication PMC11858854, “In Vitro and In Vivo Assessment of Pharmacokinetic Profile of Peramivir in the Context of Inhalation Therapy” (Pharmaceuticals, 2025)

Key:
[1] = Pharmacokinetics study in rats (i.v. and tracheal nebulization, plasma); format: in vivo, rat; conditions: for AUC(0–t) / AUC(0–t)/D / AUC(0–∞) / Cmax or C0 / Cmax/D / MRT(0–t) / MRT(0–∞) / T1/2 / Tmax / Cl / Vss / Vz: rat plasma, Mean ± SD, n = 6
Description: Pharmacokinetic studies were performed on rats to examine the effects of two distinct routes of administration: intravenous (i.v.) and tracheal nebulization (i.t.). The two administration routes were established to provide different doses, with six SD rats randomly assigned and weighed for each route.
The intravenous group consisted of rats that were randomly allocated into two subgroups, receiving dosages of 3 mg/kg and 6 mg/kg, respectively. The i.t. group consisted of rats that were randomly allocated into four groups receiving doses of 0.3 mg/kg, 1 mg/kg, 3 mg/kg, and 6 mg/kg. Prior to and at 0.033, 0.083, 0.25, 0.5, 1, 2, 4, 6, 8, 12, and 24 h post-administration, about 200 μL of blood was obtained via jugular vein catheterization and transferred to an EP tube containing heparin. Following centrifugation for 10 min at 5000× g, the plasma was isolated and preserved in a refrigerator at −40 °C until analysis.
Noncompartmental PK parameter estimates were determined from individual concentration-time data, using Phoenix WinNonlin, version 8.1 (Certara USA, Princeton, NJ, USA). And the linear relationship between AUC(0–t) and the corresponding dose was analyzed. t tests were performed on pharmacokinetic parameters under different dosing regimens to analyse the differences in drug exposure in rats.

A549 cells = assay: Uptake study by A549 cells; format: in vitro ADME, human; conditions: 10 µM, 37 °C or 4 °C
Description: A549 cells were cultured in DMEM medium supplemented with 10% FBS and PS (100 U/mL) at 37 °C in a humidified 5% CO2 incubator. Cells were seeded on 24-well plates at a density of 3 × 10^4 cells/well. For the uptake assay, the DMEM media were removed, and the cells were washed with pre-warmed Hank’s buffer three times (1 mL/well). The third washing buffer was retained in the wells, and the plate was placed in an incubator at 37 °C or 4 °C for 30 min prior to the initiation of the uptake experiment. Following the removal of the washing buffer, 200 μL of pre-warmed test drug solution (Hank’s buffer containing the 10 µM peramivir) was added into each well, and the plates were incubated at 37 °C or 4 °C for 2, 5, and 15 min. Then the incubation solution was removed, and the cells were washed with ice-cold transportation buffer three times (1 mL/well). A total of 0.2 mL pure water was added to each well to lyse the cells by repeated freezing and thawing (−196 °C~37 °C, three times). The cell lysate was collected and stored at −40 °C for LC-MS/MS analysis and protein measurement.

Caco-2 cell model = test system: Caco-2 cell model; design: method as in PMID 28000173; conditions: Caco-2, 10 μM; cited from earlier work

In the case of CCC(CC)[C@H](NC(C)=O)[C@@H]1[C@H](O)[C@@H](C(=O)O)C[C@H]1N=C(N)N [Peramivir], the “AUC(0–t)” value ([1]; i.t. 0.3 mg/kg) was 405.17 ± 56.59 ng·h/mL, the “AUC(0–t)/D” value ([1]; i.t. 0.3 mg/kg) was 1350.57 ± 188.64 kg·ng·h/mL/mg and the “AUC(0–∞)” value ([1]; i.t. 0.3 mg/kg) was 407.71 ± 56.59 ng·h/mL. The “Cmax or C0” value ([1]; i.t. 0.3 mg/kg) was 204.67 ± 80.82 ng/mL, the Cmax/D ([1]; i.t. 0.3 mg/kg) was 682.22 ± 269.38 kg·ng/mL/mg and the “MRT(0–t)” value ([1]; i.t. 0.3 mg/kg) was 1.62 ± 0.31 h. The “MRT(0–∞)” value ([1]; i.t. 0.3 mg/kg) was 1.67 ± 0.33 h, the T1/2 ([1]; i.t. 0.3 mg/kg) was 1.07 ± 0.22 h and the Tmax ([1]; i.t. 0.3 mg/kg) was 0.37 ± 0.38 h. For the same molecule, the “AUC(0–t)” value ([1]; i.t. 1 mg/kg) was 1279.25 ± 93.59 ng·h/mL, the “AUC(0–t)/D” value ([1]; i.t. 1 mg/kg) was 1279.25 ± 93.59 kg·ng·h/mL/mg and the “AUC(0–∞)” value ([1]; i.t. 1 mg/kg) was 1291.03 ± 92.89 ng·h/mL. The “Cmax or C0” value ([1]; i.t. 1 mg/kg) was 544.17 ± 215.23 ng/mL, the Cmax/D ([1]; i.t. 1 mg/kg) was 544.17 ± 215.23 kg·ng/mL/mg and the “MRT(0–t)” value ([1]; i.t. 1 mg/kg) was 2.08 ± 0.69 h. For the same molecule, the “MRT(0–∞)” value ([1]; i.t. 1 mg/kg) was 2.32 ± 1.07 h, the T1/2 ([1]; i.t. 1 mg/kg) was 4.10 ± 1.69 h and the Tmax ([1]; i.t. 1 mg/kg) was 0.67 ± 0.40 h. The “AUC(0–t)” value ([1]; i.t. 3 mg/kg) was 4364.35 ± 583.02 ng·h/mL, the “AUC(0–t)/D” value ([1]; i.t. 3 mg/kg) was 1454.78 ± 194.34 kg·ng·h/mL/mg and the “AUC(0–∞)” value ([1]; i.t. 3 mg/kg) was 4673.22 ± 567.78 ng·h/mL. The “Cmax or C0” value ([1]; i.t. 3 mg/kg) was 2303.33 ± 1523.96 ng/mL, the Cmax/D ([1]; i.t. 3 mg/kg) was 767.78 ± 507.99 kg·ng/mL/mg and the “MRT(0–t)” value ([1]; i.t. 3 mg/kg) was 3.15 ± 0.66 h. The “MRT(0–∞)” value ([1]; i.t. 3 mg/kg) was 8.26 ± 4.04 h, the T1/2 ([1]; i.t. 3 mg/kg) was 27.20 ± 9.67 h and the Tmax ([1]; i.t. 3 mg/kg) was 0.29 ± 0.36 h. The “AUC(0–t)” value ([1]; i.t. 6 mg/kg) was 8479.33 ± 883.87 ng·h/mL, the “AUC(0–t)/D” value ([1]; i.t. 6 mg/kg) was 1413.22 ± 147.31 kg·ng·h/mL/mg and the “AUC(0–∞)” value ([1]; i.t. 6 mg/kg) was 8852.22 ± 897.97 ng·h/mL. The “Cmax or C0” value ([1]; i.t. 6 mg/kg) was 3866.00 ± 2454.21 ng/mL, the Cmax/D ([1]; i.t. 6 mg/kg) was 644.33 ± 409.04 kg·ng/mL/mg and the “MRT(0–t)” value ([1]; i.t. 6 mg/kg) was 3.41 ± 1.08 h. The “MRT(0–∞)” value ([1]; i.t. 6 mg/kg) was 5.70 ± 1.84 h, the T1/2 ([1]; i.t. 6 mg/kg) was 17.73 ± 2.85 h and the Tmax ([1]; i.t. 6 mg/kg) was 0.29 ± 0.39 h. The “AUC(0–t)” value ([1]; i.v. 3 mg/kg) was 3765.02 ± 247.43 ng·h/mL, the “AUC(0–t)/D” value ([1]; i.v. 3 mg/kg) was 1255.00 ± 82.48 kg·ng·h/mL/mg and the “AUC(0–∞)” value ([1]; i.v. 3 mg/kg) was 3773.97 ± 245.49 ng·h/mL. For the same molecule, the Cl ([1]; i.v. 3 mg/kg) was 13.296 ± 0.8863 mL/min/kg, the “Cmax or C0” value ([1]; i.v. 3 mg/kg) was 12,705.55 ± 1264.79 ng/mL and the “MRT(0–t)” value ([1]; i.v. 3 mg/kg) was 0.59 ± 0.06 h. The “MRT(0–∞)” value ([1]; i.v. 3 mg/kg) was 0.62 ± 0.06 h, the T1/2 ([1]; i.v. 3 mg/kg) was 2.11 ± 1.25 h and the Vss ([1]; i.v. 3 mg/kg) was 0.49811 ± 0.0581 L/kg. For the same molecule, the Vz ([1]; i.v. 3 mg/kg) was 2.46265 ± 1.56916 L/kg, the “AUC(0–t)” value ([1]; i.v. 6 mg/kg) was 6048.04 ± 635.88 ng·h/mL and the “AUC(0–t)/D” value ([1]; i.v. 6 mg/kg) was 1008.01 ± 105.98 kg·ng·h/mL/mg. The “AUC(0–∞)” value ([1]; i.v. 6 mg/kg) was 6060.92 ± 637.85 ng·h/mL, the Cl ([1]; i.v. 6 mg/kg) was 16.654 ± 1.7818 mL/min/kg and the “Cmax or C0” value ([1]; i.v. 6 mg/kg) was 22,731.79 ± 5543.47 ng/mL. The “MRT(0–t)” value ([1]; i.v. 6 mg/kg) was 0.47 ± 0.06 h, the “MRT(0–∞)” value ([1]; i.v. 6 mg/kg) was 0.51 ± 0.07 h and the T1/2 ([1]; i.v. 6 mg/kg) was 3.07 ± 0.61 h. The Vss ([1]; i.v. 6 mg/kg) was 0.47267 ± 0.06358 L/kg, the Vz ([1]; i.v. 6 mg/kg) was 4.43299 ± 1.0131 L/kg and the “increase of mean residence time (MRT), inhaled vs intravenous” value ([1]; rat, equivalent doses) was “nearly tenfold”. For the same molecule, the “time of peak plasma concentration” value ([1]; rat, following inhalation) was “approximately 30 min”, the bioavailability ([1]; rat, inhalation vs intravenous) was “exceeding 100%” and the “dose linearity of AUC and Cmax” value ([1]; rat, intratracheal, dose range 0.3 mg/kg to 6 mg/kg) was “linear pharmacokinetics”. For the same molecule, the “uptake rate in A549 cell model” value (A549 cells) was “low” and the Papp (Caco-2 cell model) was 3.29 ± 0.739 × 10^−7 cm·s^−1.
